From patent publication US10227343B2, “Isoquiniline and napthalene-substituted compounds as mGluR4 allosteric potentiators, compositions, and methods of treating neurological dysfunction” (Vanderbilt University, priority 2015, dated 2019)

Tested on: haloperidol induced catalepsy
Experiment: reversal of haloperidol induced catalepsy
Format: in vivo, Sprague-Dawley rats
Conditions: rats, haloperidol 1.5 mg/kg i.p., compound 0.1-56.6 mg/kg oral, tested 30 minutes after compound; data in FIG. 5
Protocol: Animals. Male Sprague-Dawley rats weighing between 275 and 300 g (Harlan Laboratories, Indianapolis, Ind.) were used for the behavioral studies and were maintained in accordance with American Association for the Accreditation of Laboratory Animal Care guidelines under a 12-h light/dark cycle (lights on at 6 AM, lights off at 6 PM) with free access to food and water. The experimental procedures, which were performed during the light cycle, were approved by the Institutional Animal Care and Use Committee of Vanderbilt University and conformed to the guidelines established by the National Research Council Guide for the Care and Use of laboratory Animals. Rats were injected with haloperidol (1.5 mg/kg, i.p., dissolved in 8.5% lactic acid, pH=6) 60 minutes prior to the oral administration of Example 46 ((0.1-56.6 mg/kg) or vehicle (10% Tween 80). 30 minutes after compound administration all rats were tested for catalepsy. Catalepsy was assessed using a horizontal bar placed 6 cm from the testing surface. The forepaws of each rat were placed gently on the bar with the body positioned at an angle of ˜45° to the testing surface. The latency in seconds required for the rat to remove one or both forepaws from the bar was manually measured with a cutoff of 30 seconds.

FC(F)(F)c1nccc2cc(Nc3n[nH]c4ncccc34)ccc12 [Example 46, N-(1H-pyrazolo[3,4-b]pyridin-3-yl)-1-(trifluoromethyl) isoquinolin-6-amine]
reversal of haloperidol induced catalepsy: reversal of haloperidol induced catalepsy
